Test results from patent publication US20190247333A1, “METHOD OF REDUCTION IN […] […]” (ZOGENIX INTERNATIONAL LIMITED, priority 2017, published 2019).

Columns and labels:
[1] = system: patients with Dravet syndrome; conditions: cited from earlier work
[2] = system: patients with Dravet syndrome; assay: Study 1: Phase 3 randomized, double-blind, placebo-controlled study of ZX008 as adjunctive therapy (ZX008-1501/1502); type: in vivo, human; conditions: for mean (SD) number of non-convulsive seizures (all types) per 28 days: Baseline; for reduction from Baseline in non-convulsive seizure frequency: T+M Period; for mean (SD) non-convulsive seizure frequency per 28 days: end of T+M Period
Protocol: The first 119 subjects to be randomized in both identical studies combined were analyzed and reported as Study 1 (FIG. 1), covered by a Statistical Analysis Plan (SAP).
Primary and key secondary endpoints in the Study 1 SAP were pre-determined. All patients were treated twice per day over a period of 14 weeks using an oral syringe to administer the formulation. The treatment period included a two-week titration period and a 12-week maintenance period.
The initial results of Study 1 are outlined below. The randomized, double blind, placebo controlled, Phase 3 study enrolled 119 patients across sites in the United States, Canada, Europe and Australia. The median age of patients was 8 years, the mean age of patients was 9 years (range, 2-18 years) (FIG. 2).
Patients were titrated to their target dose over two weeks, and then remained at that fixed dose for 12 weeks. The mean baseline convulsive seizure frequency across the study groups was approximately 40 seizures per month. 110 (92%) patients completed the study (85% 0.8 mg/kg/day; 100% 0.2 mg/kg/day; 93% placebo).
The proportion of patients who achieved ≥75% seizure reductions, a secondary (non-key) efficacy measure, is also presented.
The mean number of convulsive seizure free days, defined as a day for which diary data are available and no convulsive seizures have been reported, was determined for each treatment group during the Baseline and T+M Periods. Using a parametric analysis, comparisons for the ZX008 groups to placebo were estimated from an ANCOVA model with treatment group (3 levels) and age group (<6 years, ≥6 years) as factors, log baseline number of convulsive seizure free days as a covariate and log convulsive seizure free days (Titration+Maintenance, or Maintenance Period) as response. The mean (SD) number of convulsive seizure free days per 28 days during the Baseline Period was 12.6 (7.68), 15.7 (6.80), and 14.6 (7.59) for the placebo, 0.2 and 0.8 mg/kg/day groups, respectively. […] The mean (SD) number of convulsive seizure free days for the 0.2 mg/kg/day group was 17.9 (8.04) days, which was numerically greater than placebo, but was not statistically significant (p=0.514). Similar results were obtained with a nonparametric analysis where the difference between the 0.8 mg/kg/day and placebo groups was statistically significant (p<0.001) while the difference between the 0.2 mg/kg/day and placebo groups was not (p=0.102).

[3] = system: patients with Dravet syndrome; assay: Open-label extension (OLE) study (Study 1503); type: in vivo, human; conditions: for median decrease in MCSF over the entire observation period compared to baseline: OLE interim analysis
Protocol: Table 7 presents additional analysis of seizure free intervals in the two placebo-controlled studies prior to the OLE. Inclusion criteria in both studies were for patients aged ≥2 years. Subgroup analysis was performed on patients between ≥2 to <6 years and on patients ≥6 years.
Patients (2-18 years old) entered a long-term, OLE study (Study 1503) after completing either Study 1 or Study 1504: Study 1 (14 wk; FFA: 0, 0.2, or 0.8 mg/kg/d; max, 30 mg/d in stiripentol [STP]-free AED regimens) or Study 1504 (15 wk; FFA: 0.5 mg/kg/d; max, 20 mg/d in AED+STP regimens). In 1503, all patients received 0.2 mg/kg/d FFA for 1 month; dosing was titrated to therapeutic effect thereafter.
A total of 42 of 158 (26.6%) patients who enrolled in the OLE were <6 years old at time of entry into the OLE study. The median baseline monthly convulsive seizure frequency (MCSF) prior to double-blind treatment was 10.7 seizures/month (range, 4.0 to 147.3). At the time of the OLE interim analysis, the median decrease in MCSF over the entire observation period compared to baseline was −76% (P<0.001) compared with −64% in the overall study population during the same time period.

[4] = long-term fenfluramine treatment

CCNC(C)Cc1cccc(C(F)(F)F)c1 (racemic) [fenfluramine, 3-trifluoromethyl-N-ethylamphetamine]
Seizure-free Patients ([1]; fenfluramine and valproate, average 0.34 mg/kg/day for between 1 and 22 years): 66.6%
heart valve defects by echocardiography [1, 4]: No clinically relevant defects were identified
reduction in seizures [1, 4]: 75%
incidence of all types of seizures ([1]; not only photosensitive or self-induced seizures): effectively reduced the incidence of all types of seizures
mean (SD) number of non-convulsive seizures (all types) per 28 days ([2]; 0.2 mg/kg/day group): 193.6 (478.45) per 28 days
reduction from Baseline in non-convulsive seizure frequency ([2]; 0.2 mg/kg/day): 9.7%
mean (SD) non-convulsive seizure frequency per 28 days ([2]; 0.2 mg/kg/day): 93.7 (219.69) per 28 days
mean (SD) number of non-convulsive seizures (all types) per 28 days ([2]; 0.8 mg/kg/day group): 335.2 (758.58) per 28 days
reduction from Baseline in non-convulsive seizure frequency ([2]; 0.8 mg/kg/day): 59.1%
mean (SD) non-convulsive seizure frequency per 28 days ([2]; 0.8 mg/kg/day): 127.9 (297.39) per 28 days
reduction in MCSF ([3]; Dravet patients 6 years of age or less): sustained, clinically meaningful reduction in MCSF
median decrease in MCSF over the entire observation period compared to baseline ([3]; overall study population): −64%
median decrease in MCSF over the entire observation period compared to baseline ([3]; patients <6 years old at entry): −76%
most frequently reported AE's ([3]; OLE, patients <6 years old): pyrexia, nasopharyngitis, upper respiratory tract infections, and diarrhea
